Source: patent publication EP0181128A2, “N6-bicycloadenosines” (WARNER-LAMBERT COMPANY, priority 1984, dated 1986)
Where two headings read alike, the source gives them in different places.

Experiments:
[1] = system: Carrageenan pleurisy; test: Carrageenan pleurisy assay (immunoinflammatory test); assay type: in vivo, rats; details: Rattus norvegicus; for ED50: 4 h, four hours after carrageenan, compound given one hour prior to carrageenan
Procedure: Assessment of immunoinflammatory or antiinflammatory activity is provided by the carrageenan pleurisy assay. Carrageenan pleurisy is induced as previously described by Carter, G. W., et al., in J. Pharm. Pharmacol 34:66-67, 1982. Carrageenan (310 ug/rat) is injected intrapleurally in a 0.25 ml volume of pyrogen-free saline. Four hours later, the rats are sacrificed and 2 ml of a phenol red solution (325 mg phenol red in 1 liter of 0.05 M phosphate buffered saline) are added to each pleural cavity. The contents of the cavities are mixed and transferred to glass test tubes. A 50 ul aliquot is removed from each tube and exudate cells are counted after red blood cells lysis (with Zapoglobin; Coulter Electronics, Hialeah FL) using a Coulter model ZBI counter. The remaining exudate-phenol red mixture is centrifuged at 750 xg for 15 minutes. One hundred µl of the supernatent fluid is diluted with 3.9 ml of phosphate buffer (0.072 M of tribasic sodium phosphate, Na3PO4·12H2O, in water) and the absorbance is measured at 560 nm.
Exudate volume is calculated as follows: [formula] where V1 = unknown volume of exudate, V2 K volume of dye added to cavity (2 ml), A1 = absorbance of exudate (assumed to be zero), A2 = absorbance of the phenol red solution, A3 = absorbance of exudate and phenol red solution.
Inhibition of exudate or formation is calculated by the following equations: [formula] [formula] ID50 values are calculated by Probit analysis.
The compound of Example 1 was administered one hour prior to carrageenan injection.

[2] = molecular target: T1, adenosine A1 receptor (Rattus norvegicus, UniProt P25099); test: Adenosine Receptor Binding - A1 Receptor Affinity (RBA1), [3H]-CHA displacement in brain membranes; set-up: species or system rats; details: 1.0 nM [3H]-CHA, rat whole brain membranes, one hour at 25°C; read-out: RBA-1
T1 sequence (P25099 1-326): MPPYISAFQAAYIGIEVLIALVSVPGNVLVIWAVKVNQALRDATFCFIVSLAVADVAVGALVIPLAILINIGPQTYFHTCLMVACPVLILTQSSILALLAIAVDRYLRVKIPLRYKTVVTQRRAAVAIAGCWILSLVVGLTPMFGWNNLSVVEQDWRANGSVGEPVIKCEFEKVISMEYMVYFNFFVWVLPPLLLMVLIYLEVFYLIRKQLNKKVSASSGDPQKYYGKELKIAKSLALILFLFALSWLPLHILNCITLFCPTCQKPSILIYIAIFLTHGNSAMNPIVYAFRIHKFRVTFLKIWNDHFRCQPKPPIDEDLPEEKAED
Procedure: Adenosine Receptor Binding - A1 Receptor Affinity (RBA1)
The supernatant was discarded, and the pellet was resuspended and centrifuged as before.
Incubation volume was 2 ml. Unbound [^3H]-CHA was separated by rapid filtration under reduced pressure through Whatman glass fiber (GF/B) filters.
Nonspecific binding was defined as the binding which occurred in the presence of 1 mM theophylline. […] Since the amount of radioligand bound was a small fraction of the total amount added, free radioligand was defined as the concentration (nM) of radioligand added to the incubation mixture.

[3] = molecular target: adenosine A2 receptor (Rattus norvegicus, UniProt P30543); test: Adenosine Receptor Binding - A2 Receptor Affinity (RBA2), [3H]NECA displacement in striatal membranes; set-up: species or system rats; details: 4 nM [3H]NECA, 50 nM N6-cyclopentyladenosine, 60 minutes at 25°C, read-out: RBA-2
Procedure: Adenosine Receptor Binding - A2 Receptor Affinity (RBA2)
Brains from 200-500 g mixed sex Sprague-Dawley rats were purchased from Pel-Freez (Rogers, Arkansas). […] Brains were thawed and then kept on ice while the striata were dissected out. […] When needed, tissue was thawed at room temperature, disrupted in a Polytron, and kept on ice until used.
Test compounds were dissolved at 10 mM in dimethylsulfoxide on the same day as the experiment, and diluted in dimethylsulfoxide to 100x the final incubation concentration. […] [^3H]NECA was diluted to 40 nM in Tris. […] After all additions, the rack of tubes was vortexed, and the tubes were then incubated for 60 min at 25°C in a shaking water bath. The rack of tubes was vortexed an additional time halfway through the incubation.
Incubations were terminated by filtration through 2.4 cm GF/B filters under reduced pressure. Each tube was filtered as follows: the contents of the tube were poured onto the filter, 4 ml of ice-cold Tris were added to the tube and the contents poured onto the filter, and the filter was washed twice with 4 ml of ice-cold Tris. The filtration was complete in about twelve seconds. Filters were put in scintillation vials, 8 ml of Formula 947 scintillation fluid added, and the vials left overnight, shaken, and counted in a liquid scintillation counter at 40% efficiency.

[4] = system: male Swiss-Webster mice; test: Antiwrithing (AW) test (analgesic test), acetic acid-induced writhing; assay type: in vivo; details: Mus musculus, sc; subcutaneous, 20 minutes before acetic acid (0.6%, 10 ml/kg) i.p.; dose suppressing writhing by 50%
Procedure: The antiwrithing (AW) test provides preliminary assessment of compounds with potential analgesic activity. The test is performed in male Swiss-Webster mice. Compounds are administered subcutaneously in aqueous 0.2% methylcellulose or other appropriate vehicles in volumes of 10 ml/kg. Dosages represent active moiety.
Acetic acid (0.6%, 10 ml/kg) is injected intraperitoneally 20 minutes after administration of the adenosine agonist. Writhing movements are counted for five minutes starting seven minutes after the acetic acid injection. Writhing is defined as abdominal constriction and stretching of the body and hind legs with concave arching of the back. Data are.expressed as ED50 values, where the ED50 is the dose necessary to suppress writhing by 50% relative to vehicle controls. ED50 values are calculated by nonlinear regression analysis.

adenosine A2 receptor, sequence (P30543 whole entry): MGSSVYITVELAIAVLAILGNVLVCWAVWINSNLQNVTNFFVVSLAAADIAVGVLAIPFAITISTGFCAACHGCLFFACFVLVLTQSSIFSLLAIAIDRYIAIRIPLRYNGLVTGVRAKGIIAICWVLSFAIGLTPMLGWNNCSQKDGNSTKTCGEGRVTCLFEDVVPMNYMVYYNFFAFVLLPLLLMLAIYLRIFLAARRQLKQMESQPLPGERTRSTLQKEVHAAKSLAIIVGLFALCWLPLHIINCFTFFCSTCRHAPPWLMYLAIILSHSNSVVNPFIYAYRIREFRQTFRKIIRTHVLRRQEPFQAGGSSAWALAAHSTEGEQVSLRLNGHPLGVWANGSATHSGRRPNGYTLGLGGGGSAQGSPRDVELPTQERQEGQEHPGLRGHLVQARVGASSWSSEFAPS

Structure (SMILES)	inhibition at 0.3 mg/kg ([1]; read-out: % Inhibition Exudate) [%]	inhibition at 0.3 mg/kg ([1]; read-out: % Inhibition WBC) [%]	inhibition at 1 mg/kg ([1]; read-out: % Inhibition Exudate) [%]	inhibition at 1 mg/kg ([1]; read-out: % Inhibition WBC) [%]	IC50 [2] [nM]	inhibition at 0.1 mg/kg ([1]; read-out: % Inhibition Exudate) [%]	inhibition at 0.1 mg/kg ([1]; read-out: % Inhibition WBC) [%]	IC50 [3] [nM]	ED50 ([1]; exudate cells (WBC), read-out: ID50 (mg/kg) WBC) [mg/kg]	ED50 ([1]; exudate volume, read-out: ID50 (mg/kg) Exudate) [mg/kg]	inhibition at 0.2 mg/kg ([1]; read-out: % Inhibition Exudate) [%]	inhibition at 0.2 mg/kg ([1]; read-out: % Inhibition WBC) [%]	inhibition at 0.4 mg/kg ([1]; read-out: % Inhibition Exudate) [%]	inhibition at 0.4 mg/kg ([1]; read-out: % Inhibition WBC) [%]	inhibition at 0.8 mg/kg ([1]; read-out: % Inhibition Exudate) [%]	inhibition at 0.8 mg/kg ([1]; read-out: % Inhibition WBC) [%]	ED50 [4] [mg/kg]
OCC1OC(n2cnc3c(NC4CC5CCC4C5)ncnc32)C(O)C1O (stereo not drawn) [Example 2, N6-exo-Bicyclo[2.2.1]heptyladenosine]	24.3	25.7	22.9	52.9	1.4	–	–	–	–	–	–	–	–	–	–	–	–
OC1C(CCl)OC(n2cnc3c(NC4CC5CCC4C5)ncnc32)C1O (stereo not drawn) [Example 5, N6-2-endo-norbornyl-5'-chloro-5'-deoxy-adenosine]	16.8	40	–	–	0.69	11.7	18.4	3090	–	–	–	–	–	–	–	–	–
OCC1OC(n2cnc3c(NC4CC5CCC4C5)ncnc32)C(O)C1O (stereo not drawn) [Example 1, N6-endo-Bicyclo[2.2.1]heptyl adenosine]	–	–	–	–	0.85	49.3	74.1	–	0.12	0.15	60	70	81.3	90	42.7	68.4	0.03
